Molecular target: T1, human V1a receptor (Homo sapiens, UniProt P37288)
T1 construct: expressed in transfected cells; host or cells: HEK293 cells, transiently transfected; membranes prepared
Assay: human V1a receptor binding (3H-Vasopressin SPA, HEK293 membranes)
Conditions: membranes of HEK293 cells transiently transfected with human V1a receptor, Ki by Cheng-Prussoff, read-out: pKi (hV1a) (converted)
Procedure, shortened: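 HEK293 membranes transiently expressing cloned human V1a receptor, bound to yttrium silicate SPA beads in Tris/NaCl/KCl/CaCl2/MgCl2 buffer. Test compounds in 2% DMSO competed with 3H-vasopressin (4 nM solution added) for 1 h at room temperature; non-specific binding defined with cold vasopressin. IC50 from non-linear fit, Ki via Cheng-Prusoff.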

T1 sequence (P37288 whole entry): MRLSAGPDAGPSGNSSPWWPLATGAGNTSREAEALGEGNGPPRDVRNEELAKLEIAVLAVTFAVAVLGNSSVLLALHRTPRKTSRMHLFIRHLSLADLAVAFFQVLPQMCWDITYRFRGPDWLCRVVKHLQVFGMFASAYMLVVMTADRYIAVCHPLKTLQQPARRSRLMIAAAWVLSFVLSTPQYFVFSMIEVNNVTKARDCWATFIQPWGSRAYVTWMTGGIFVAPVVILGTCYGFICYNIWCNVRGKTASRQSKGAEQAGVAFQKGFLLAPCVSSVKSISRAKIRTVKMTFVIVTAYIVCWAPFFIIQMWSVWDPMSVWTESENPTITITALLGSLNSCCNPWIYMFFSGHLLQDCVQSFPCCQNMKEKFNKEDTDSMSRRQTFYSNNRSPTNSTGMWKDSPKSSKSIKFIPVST

Work on `Cc1nc([C@H]2CC[C@H](c3nnc4n3-c3ccc(Cl)cc3CN(C)C4)CC2)oc1Cl` [Example 100, trans-8-Chloro-1-[4-(5-chloro-4-methyl-oxazol-2-yl)-cyclohexyl]-5-methyl-5,6-dihydro-4H-2,3,5,10b-tetraaza-benzo[e]azulene] yielded a Ki of 1.1 nM.

In the case of `Cc1nc([C@H]2CC[C@H](c3nnc4n3-c3ccc(Cl)cc3CN(C(=O)OC(C)(C)C)C4)CC2)sc1Cl` [Example 101, trans-8-Chloro-1-[4-(5-chloro-4-methyl-thiazol-2-yl)-cyclohexyl]-4H,6H-2,3,5,10b-tetraaza-benzo[e]azulene-5-carboxylic acid tert-butyl ester], the Ki is reported as 1.29 nM.

`Cc1nc([C@H]2CC[C@H](c3nnc4n3-c3ccc(Cl)cc3CNC4)CC2)sc1Cl` [Example 102, trans-8-Chloro-1-[4-(5-chloro-4-methyl-thiazol-2-yl)-cyclohexyl]-5,6-dihydro-4H-2,3,5,10b-tetraaza-benzo[e]azulene] showed a Ki of 3.8 nM.

For `Cc1nc([C@H]2CC[C@H](c3nnc4n3-c3ccc(Cl)cc3CN(C)C4)CC2)sc1Cl` [Example 103, trans-8-Chloro-1-[4-(5-chloro-4-methyl-thiazol-2-yl)-cyclohexyl]-5-methyl-5,6-dihydro-4H-2,3,5,10b-tetraaza-benzo[e]azulene], the Ki was 1.58 nM.

Work on `Cc1nc([C@H]2CC[C@H](c3nnc4n3-c3ccc(Cl)cc3CN(C(=O)OC(C)(C)C)C4)CC2)sc1C` [Example 104, trans-8-Chloro-1-[4-(4,5-dimethyl-thiazol-2-yl)-cyclohexyl]-4H,6H-2,3,5,10b-tetraaza-benzo[e]azulene-5-carboxylic acid tert-butyl ester] yielded a Ki of 0.794 nM.

For `Cc1nc([C@H]2CC[C@H](c3nnc4n3-c3ccc(Cl)cc3CNC4)CC2)sc1C` [Example 105, trans-8-Chloro-1-[4-(4,5-dimethyl-thiazol-2-yl)-cyclohexyl]-5,6-dihydro-4H-2,3,5,10b-tetraaza-benzo[e]azulene], the Ki was 21.9 nM.

With `Cc1nc([C@H]2CC[C@H](c3nnc4n3-c3ccc(Cl)cc3CN(C)C4)CC2)sc1C` [Example 106, trans-8-Chloro-1-[4-(4,5-dimethyl-thiazol-2-yl)-cyclohexyl]-5-methyl-5,6-dihydro-4H-2,3,5,10b-tetraaza-benzo[e]azulene] the Ki was 2.29 nM.

With `CN1Cc2cc(Cl)ccc2-n2c(nnc2[C@H]2CC[C@H](c3noc4c3CCC4)CC2)C1` [Example 107, trans-8-Chloro-1-[4-(5,6-dihydro-4H-cyclopenta[d]isoxazol-3-yl)-cyclohexyl]-5-methyl-5,6-dihydro-4H-2,3,5,10b-tetraaza-benzo[e]azulene] the Ki was 1.58 nM.

In the case of `CC(C)(C)OC(=O)N1Cc2cc(Cl)ccc2-n2c(nnc2[C@H]2CC[C@H](c3noc(CO)c3CO)CC2)C1` [Example 108, trans-1-[4-(4,5-Bis-hydroxymethyl-isoxazol-3-yl)-cyclohexyl]-8-chloro-4H,6H-2,3,5,10b-tetraaza-benzo[e]azulene-5-carboxylic acid tert-butyl ester], the Ki is reported as 12.6 nM.

`Clc1ccc2c(c1)CNCc1nnc([C@H]3CC[C@H](n4cccn4)CC3)n1-2` [Example 110, trans-8-Chloro-1-(4-pyrazol-1-yl-cyclohexyl)-5,6-dihydro-4H-2,3,5,10b-tetraaza-benzo[e]azulene] showed a Ki of 42.7 nM.

Compound `CN1Cc2cc(Cl)ccc2-n2c(nnc2[C@H]2CC[C@H](n3cccn3)CC2)C1` [Example 111, trans-8-Chloro-5-methyl-1-(4-pyrazol-1-yl-cyclohexyl)-5,6-dihydro-4H-2,3,5,10b-tetraaza-benzo[e]azulene] has a Ki of 17 nM.

Compound `CC(C)(C)OC(=O)N1Cc2cc(Cl)ccc2-n2c(nnc2[C@H]2CC[C@@H](n3cccn3)CC2)C1` [Example 112, cis-8-Chloro-1-(4-pyrazol-1-yl-cyclohexyl)-4H,6H-2,3,5,10b-tetraaza-benzo[e]azulene-5-carboxylic acid tert-butyl ester] has a Ki of 75.9 nM.

`Clc1ccc2c(c1)CNCc1nnc([C@H]3CC[C@@H](n4cccn4)CC3)n1-2` [Example 113, cis-8-Chloro-1-(4-pyrazol-1-yl-cyclohexyl)-5,6-dihydro-4H-2,3,5,10b-tetraaza-benzo[e]azulene] showed a Ki of 794 nM.

In the case of `CN1Cc2cc(Cl)ccc2-n2c(nnc2[C@H]2CC[C@@H](n3cccn3)CC2)C1` [Example 114, cis-8-Chloro-5-methyl-1-(4-pyrazol-1-yl-cyclohexyl)-5,6-dihydro-4H-2,3,5,10b-tetraaza-benzo[e]azulene], the Ki is reported as 794 nM.

With `Cc1cc(C)n([C@H]2CC[C@H](c3nnc4n3-c3ccc(Cl)cc3CN(C(=O)OC(C)(C)C)C4)CC2)n1` [Example 115, trans-8-Chloro-1-[4-(3,5-dimethyl-pyrazol-1-yl)-cyclohexyl]-4H,6H-2,3,5,10b-tetraaza-benzo[e]azulene-5-carboxylic acid tert-butyl ester] the Ki was 0.17 nM.

Compound `Cc1cc(C)n([C@H]2CC[C@H](c3nnc4n3-c3ccc(Cl)cc3CNC4)CC2)n1` [Example 116, trans-8-Chloro-1-[4-(3,5-dimethyl-pyrazol-1-yl)-cyclohexyl]-5,6-dihydro-4H-2,3,5,10b-tetraaza-benzo[e]azulene] has a Ki of 72.4 nM.

`Cc1cc(C)n([C@H]2CC[C@H](c3nnc4n3-c3ccc(Cl)cc3CN(C)C4)CC2)n1` [Example 117, trans-8-Chloro-1-[4-(3,5-dimethyl-pyrazol-1-yl)-cyclohexyl]-5-methyl-5,6-dihydro-4H-2,3,5,10b-tetraaza-benzo[e]azulene] gave a Ki of 6.92 nM.

`Cc1nn([C@H]2CC[C@H](c3nnc4n3-c3ccc(Cl)cc3CN(C(=O)OC(C)(C)C)C4)CC2)c(C)c1C` [Example 118, trans-8-Chloro-1-[4-(3,4,5-trimethyl-pyrazol-1-yl)-cyclohexyl]-4H,6H-2,3,5,10b-tetraaza-benzo[e]azulene-5-carboxylic acid tert-butyl ester] was tested, and the Ki was 0.832 nM.

With `Cc1nn([C@H]2CC[C@H](c3nnc4n3-c3ccc(Cl)cc3CNC4)CC2)c(C)c1C` [Example 119, trans-8-Chloro-1-[4-(3,4,5-trimethyl-pyrazol-1-yl)-cyclohexyl]-5,6-dihydro-4H-2,3,5,10b-tetraaza-benzo[e]azulene] the Ki was 2.19 nM.

Work on `Cc1nn([C@H]2CC[C@H](c3nnc4n3-c3ccc(Cl)cc3CN(C)C4)CC2)c(C)c1C` [Example 120, trans-8-Chloro-1-[4-(3,4,5-trimethyl-pyrazol-1-yl)-cyclohexyl]-5-methyl-5,6-dihydro-4H-2,3,5,10b-tetraaza-benzo[e]azulene] yielded a Ki of 1.95 nM.
